In paper PMC12603070, “A high-throughput screening approach to discover potential colorectal cancer chemotherapeutics: repurposing drugs to identify novel disruptors of 14-3-3 proteins” (Cell Death & Disease, 2025):
Where a name gives a salt, the structure may show the parent alone. Read-outs that look alike come from different tables or passages of the source.

Tests used:
Caco-2 cells = assay type: cell-based; settings: for Percentage of cell death % 24h CACO-2: 20 µM; for Percentage of cell death % 48h, Caco-2: 20 μM
Source text: (§1) A high-content imaging system (PerkinElmer; Operetta CLS), was used to quantify cell death and apoptosis by calculating the number of propidium iodide-positive cells relative to Hoechst-positive cells, and the number of Annexin V-positive cells relative to Hoechst-positive cells, respectively.

[1] = target: T1, 14-3-3ζ:BAD-112-136F interactions (Homo sapiens, UniProt P63104); test: BRET sensor screen for disruption of 14-3-3ζ-Rluc8:BAD-112-136F-mCitrine in living NIH-3T3 cells; assay type: cell-based, murine; set-up: inhibition: dose or concentration left out as unconfirmed; BRET reduction on NIH-3T3: unit not given here; settings: for inhibition / inhibition at 20 µM: NIH3T3, 3 h, read-out: BRET reduction on NIH-3T3
T1 construct: expressed in transfected cells; host or cells: NIH-3T3 fibroblasts, bi-directional pBI-CMV1 plasmid
T1 sequence (P63104 1-245): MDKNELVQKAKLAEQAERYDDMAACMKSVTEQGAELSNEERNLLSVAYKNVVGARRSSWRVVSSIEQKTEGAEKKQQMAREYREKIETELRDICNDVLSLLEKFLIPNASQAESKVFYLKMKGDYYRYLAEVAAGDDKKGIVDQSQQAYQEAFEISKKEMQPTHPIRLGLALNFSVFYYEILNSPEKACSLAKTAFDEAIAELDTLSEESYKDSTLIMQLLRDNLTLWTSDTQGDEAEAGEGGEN
How it was run: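 NIH-3T3 cells were transfected with the BRET sensor two days beforehand, then replated on poly-L-ornithine-coated plates and grown 24 h at 37 °C. Medium was then replaced with Krebs buffer (pH 7.4). Z′-score was calculated to judge HTS robustness.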

HT-29 cells = test: Hoechst/propidium iodide cell death assay in HT-29; assay type: cell-based, human; settings: for cytotoxicity at 20 µM: Homo sapiens; for %Cell death HT-29: time not given
Source text: as §1

NIH-3T3 cells = test: Hoechst/propidium iodide cell death assay in NIH-3T3; assay type: cell-based; settings: for cytotoxicity at 20 µM: Mus musculus, NIH3T3, 24 h, read-out: Percentage of cell death % 24h NIH3t3
Source text: as §1

[2] = NIH-3T3 cells, hits from the primary screen
[3] = NIH-3T3 expressing BRET sensor, 20 µM, 3 h
[4] = HT-29, 24 h, 20 µM, 24 h, read-out: Percentage of cell death % 24h HT-29
[5] = HT-29, 48 h, HT-29, 48h, 20 μM, read-out: Percentage of cell death % 48h, HT-29
[6] = HT-29, 24 h, read-out: Percentage of cell death % 24h HT-29
[7] = HT-29, 48 h, read-out: Percentage of cell death % 48h, HT-29

Row | Molecule | Percentage of cell death % 24h CACO-2 (Caco-2 cells) [%] | Percentage of cell death % 48h, Caco-2 (Caco-2 cells) [%] | inhibition [1, 2] [%] | inhibition at 20 µM [1, 3] [%] | cytotoxicity at 20 µM (HT-29 cells; [4]) [%] | cytotoxicity at 20 µM (HT-29 cells; [5]) [%] | cytotoxicity at 20 µM (NIH-3T3 cells; 20 µM, 24 h) [%] | Percentage of cell death % 48h, NIH3T3 (NIH-3T3 cells) [%] | %Cell death Caco-2 (Caco-2 cells) [%] | %Cell death HT-29 (HT-29 cells; HT-29) [%] | %Cell death Caco-2 (Caco-2 cells; time not given, text says 48 h) [%] | BRET reduction on NIH-3T3 [1, 2] | BRET reduction on NIH-3T3 [1, 3] | Percentage of cell death % 24h HT-29 (HT-29 cells; 20 µM, 24 h) [%] | Percentage of cell death % 48h, HT-29 (HT-29 cells; HT-29, 48h, 20 μM) [%] | Percentage of cell death % 24h NIH3t3 (NIH-3T3 cells; 20 µM, 24 h) [%] | inhibition at 20 µM [1] [%] | cytotoxicity at 20 µM (HT-29 cells; [6]) [%] | cytotoxicity at 20 µM (HT-29 cells; [7]) [%] | cytotoxicity at 20 µM (NIH-3T3 cells) [%]
1 | Cc1cc(Nc2cc(CN3CCOCC3)c3nc(C)c(Cc4ccc(Cl)cc4F)n3n2)n[nH]1 [LY2784544] | 12.6848 | 17.5299 | 36.5 | 36.5 | 6.62 | 55.6 | 62.8 | 50.4683 | – | – | – | – | – | – | – | – | – | – | – | –
2 | CCN(CC)CCOc1ccc(C(=C(Cl)c2ccccc2)c2ccccc2)cc1 [Clomiphene citrate] | – | – | 38.2 | 38.2 | 1.46 | 52 | 10.1 | 58.221 | 34.7 | 52.0 | – | – | – | – | – | – | – | – | – | –
3 | CC1=C(C(=O)OC(C)C)C(c2cccc([N+](=O)[O-])c2)C(C(=O)OC2CN(C(c3ccccc3)c3ccccc3)C2)=C(N)N1 (stereo not drawn) [Azelnidipine] | 9.563 | 13.6799 | 40.2 | 40.2 | 66.4 | 91.6 | 75.6 | 71.6636 | – | 91.6 | 13.7 | – | – | – | – | – | – | – | – | –
4 | O=C1Nc2ccc(Cl)cc2[C@@](C#CC2CC2)(C(F)(F)F)O1 [Efavirenz] | – | – | 30.3 | 30.3 | 18.5 | 22 | 41.4 | 7.6471 | 20.5 | 22.0 | – | – | – | – | – | – | – | – | – | –
5 | C=C[C@@H]1C[C@]1(NC(=O)[C@@H]1C[C@@H]2CN1C(=O)[C@H](C(C)(C)C)NC(=O)O[C@@H]1C[C@H]1CCCCCc1nc3ccc(OC)cc3nc1O2)C(=O)NS(=O)(=O)C1CC1 [MK-5172] | 2.115 | 2.005 | 33.9 | 33.9 | 0.694 | 2.55 | 0.421 | 0.3254 | – | – | – | – | – | – | – | – | – | – | – | –
6 | Ivermectin | 4.453 | 5.173 | – | – | – | – | – | 70.901 | – | 78.9 | 5.2 | 41.4556 | 41.4556 | 6.036 | 78.9396 | 38.0218 | – | – | – | –
7 | CCCSc1nc(N[C@@H]2C[C@H]2c2ccc(F)c(F)c2)c2nnn([C@@H]3C[C@H](OCCO)[C@@H](O)[C@H]3O)c2n1 [Ticagrelor] | 3.005 | 3.049 | 25.6 | 25.6 | 1.2 | 3.67 | 13.7 | 5.069 | – | – | – | – | – | – | – | – | – | – | – | –
8 | CCCCc1oc2ccc(NS(C)(=O)=O)cc2c1C(=O)c1ccc(OCCCN(CCCC)CCCC)cc1 [Dronedarone] | 69.9639 | 86.906 | 50.4 | 50.4 | – | 79 | 88.3 | 83.8385 | – | 79.0 | 86.9 | – | – | 52.4326 | – | – | – | – | – | –
9 | COc1cc2nccc(Oc3ccc(NC(=O)Nc4cc(C)on4)c(Cl)c3)c2cc1OC [Tivozanib (AV-951), Tivozanib] | 5.391 | 6.001 | 26.5 | 26.5 | 1.65 | 23 | 10.8 | 31.2285 | – | – | – | – | – | – | – | – | – | – | – | –
10 | Cc1ccc(C(=O)Nc2ccc(CN3CCN(C)CC3)c(C(F)(F)F)c2)cc1C#Cc1cnc2cccnn12 [Ponatinib (AP24534), Ponatinib] | 28.4678 | 42.5244 | – | – | – | – | – | 54.2208 | – | – | – | 44.6783 | – | – | – | – | 44.7 | 56.7 | 83.2 | 73.5
11 | COC(=O)[C@]12CCC(C)(C)C[C@H]1[C@H]1C(=O)C=C3[C@@]4(C)C=C(C#N)C(=O)C(C)(C)[C@@H]4CC[C@@]3(C)[C@]1(C)CC2 [Bardoxolone methyl] | – | – | – | – | – | – | – | 72.1638 | 19.2 | 67.5 | – | 39.4225 | 39.4225 | 43.1592 | 67.5309 | 87.0027 | – | – | – | –
12 | C=CCc1ccc(O)c(-c2cc(CC=C)ccc2O)c1 [Magnolol] | 16.7853 | 10.8986 | – | – | – | – | – | 6.55 | – | – | – | 33.2336 | – | – | – | – | 33.2 | 15.8 | 20.3 | 15.7
13 | C=CCc1ccc(O)c(-c2ccc(O)c(CC=C)c2)c1 [Honokiol] | 22.4688 | 15.5538 | 34.2 | 34.2 | 8.61 | 11.1 | 27.4 | 11.7537 | – | – | – | – | – | – | – | – | – | – | – | –
14 | O=c1[nH]c2ccccc2n1C1CCN(CCCC(c2ccc(F)cc2)c2ccc(F)cc2)CC1 [Pimozide] | – | – | – | – | 11 | 64.6 | 65.9 | 78.5926 | 59.9 | 64.6 | – | 38.4171 | – | – | – | – | 38.4 | – | – | –
15 | C[C@@H](NCCCc1cccc(C(F)(F)F)c1)c1cccc2ccccc12 [Cinacalcet] | 40.5775 | 49.3803 | 47.7 | 47.7 | 30 | 70.3 | 75.5 | 90.5083 | – | 70.3 | 49.4 | – | – | – | – | – | – | – | – | –
16 | CCCCc1oc2ccc(NS(C)(=O)=O)cc2c1C(=O)c1ccc(OCCCN(CCCC)CCCC)cc1 [Dronedarone HCl] | 77.641 | 87.4152 | – | – | – | – | – | 84.99 | – | – | – | 49.6356 | 49.6356 | 82.9811 | 91.5188 | 85.6589 | – | – | – | –
17 | COc1ccc2c(O[C@@H]3C[C@H]4C(=O)N[C@]5(C(=O)NS(=O)(=O)C6CC6)C[C@H]5/C=C\CCCCN(C)C(=O)[C@@H]4C3)cc(-c3nc(C(C)C)cs3)nc2c1C [Simeprevir] | 3.948 | 5.542 | 42.6 | 42.6 | 38.8 | 70.9 | 19.3 | 93.5636 | – | 70.9 | 5.5 | – | – | – | – | – | – | – | – | –
18 | CC(C)OC(=O)CCC/C=C\C[C@@H]1[C@@H](CC[C@@H](O)CCc2ccccc2)[C@H](O)C[C@@H]1O [Latanoprost] | 2.638 | 2.117 | 29.5 | 29.5 | 0.702 | 1.45 | 1.31 | 0.6511 | – | – | – | – | – | – | – | – | – | – | – | –
19 | CCCCCCCCCCCC[N+](C)(C)CCOc1ccccc1 [Domiphen Bromide] | 24.2566 | 80.35 | 49 | 49 | 15 | 57.1 | 81.2 | 69.1517 | – | – | – | – | – | – | – | – | – | – | – | –
